In paper PMC10981686, “Structural bases of inhibitory mechanism of CaV1.2 channel inhibitors” (Nature Communications, 2024):
Several values for one entry are separate records, joined by “and”; a condition that tells them apart may be missing. Equal entries are not always repeated. Where two headings read alike, the source gives them in different places.

How the values were obtained:
[1] = system: CaV1.2 with substitutions at positions T1056 and Q1060; parameters: method as in PMID 9006896; settings: result in words; cited from earlier work
[2] = target: T1, CaV1.2^Q1060M (Homo sapiens, UniProt Q13936, Q1060M); assay: whole-cell patch clamp inhibition curves in HEK293T cells, Q1060M mutant; assay type: cell-based
T1 construct: superfolder GFP (sfGFP) (C); Twin-Strep (C); expressed in transfected cells; host or cells: HEK293T
Method: (§1) Whole-cell voltage-clamp recordings were carried out using human embryonic kidney 293 T (HEK293T) cells, which were cultured in Dulbecco’s Modified Eagle Medium (DMEM, Gibco) supplemented with 10% (v/v) fetal bovine serum (FBS, PAN-Biotech) at 37 °C supplemented with 5% CO2. Three distinct recombinant baculoviruses encoding CaV1.2, α2δ1, and β2 were used to coinfect HEK293T cells once they reached a confluence of 40–60%. After 8−12 h, transfected cells were re-plated on 8 × 8 mm coverslips, and sodium butyrate was added to the culture at a final concentration of 0.5−2.5 mM to improve protein expression. Whole-cell recordings of activation curves were performed from isolated GFP-positive HEK293T cells at 20−28 h after transfection with recombinant baculoviruses. […] Pipettes were pulled to obtain final resistances of 2−6 MΩ with a Sutter P-97 puller and heat-polished before employment. […] The series resistance was not compensated in these experiments. […] Signals were digitized at 10 kHz and low-pass filtered at 2 kHz. Data were analyzed with Clampfit 10.7.
(§2) To measure the inhibition curves, 2 μg endotoxin-free plasmids of wild-type (WT) or mutants generated by PCR expressing CaV1.2, α2δ1, and β2 were transiently transfected using 1.2 μg Lipofectamine 2000 Reagent (Thermo Fisher Scientific). For curves determining, re-plated cells were held at −100 mV, and then depolarized at +10 mV to elicit inward currents. To ensure stable currents during measurement, a series of traces were pre-recorded at a specific time interval without drug application for each construct. […] Perfusions applied using a gravity-driven system. […] Data analyses were performed using Origin 2022 (Origin Lab Corporation), GraphPad Prism 9 (GraphPad Software, Inc.) and Adobe illustrator 2018.

[3] = system: L-type and T-type channels; parameters: method as in earlier work; settings: result in words, 82 and references of Supplementary Table 2, cited from earlier work
[4] = target: T2, CaV1.2^T1056Y (Homo sapiens, UniProt Q13936, T1056Y); assay: whole-cell patch clamp inhibition curves in HEK293T cells, T1056Y mutant; assay type: cell-based
T2 construct: superfolder GFP (sfGFP) (C); Twin-Strep (C); expressed in transfected cells; host or cells: HEK293T
Method: as §1, §2

[5] = target: T3, CaV1.2^Q1060F (Homo sapiens, UniProt Q13936, Q1060F); assay: whole-cell patch clamp inhibition curves in HEK293T cells, Q1060F mutant; assay type: cell-based
T3 construct: superfolder GFP (sfGFP) (C); Twin-Strep (C); expressed in transfected cells; host or cells: HEK293T
Method: as §1, §2

[6] = system: T-type CaV channels; settings: cited from earlier work
[7] = system: N-type CaV channels; settings: cited from earlier work
[8] = target: T4, CaV1.2^WT (human CaV1.2 with α2δ1 and β2) (Homo sapiens, UniProt Q13936); assay: whole-cell patch clamp inhibition curves in HEK293T cells, wild-type CaV1.2; assay type: cell-based; settings: for logIC50 (best-fit value): X values in μM
T4 construct: superfolder GFP (sfGFP) (C); Twin-Strep (C); expressed in transfected cells; host or cells: HEK293T
Method: as §1, §2

[9] = target: T5, CaV1.2^N1179W (Homo sapiens, UniProt Q13936, N1179W); assay: whole-cell patch clamp inhibition curves in HEK293T cells, N1179W mutant; assay type: cell-based
T5 construct: superfolder GFP (sfGFP) (C); Twin-Strep (C); expressed in transfected cells; host or cells: HEK293T
Method: as §1, §2

[10] = target: T6, CaV1.2^N741W (Homo sapiens, UniProt Q13936, N741W); assay: whole-cell patch clamp inhibition curves in HEK293T cells, N741W mutant; assay type: cell-based
T6 construct: superfolder GFP (sfGFP) (C); Twin-Strep (C); expressed in transfected cells; host or cells: HEK293T
Method: as §1, §2

T4 sequence (Q13936 whole entry): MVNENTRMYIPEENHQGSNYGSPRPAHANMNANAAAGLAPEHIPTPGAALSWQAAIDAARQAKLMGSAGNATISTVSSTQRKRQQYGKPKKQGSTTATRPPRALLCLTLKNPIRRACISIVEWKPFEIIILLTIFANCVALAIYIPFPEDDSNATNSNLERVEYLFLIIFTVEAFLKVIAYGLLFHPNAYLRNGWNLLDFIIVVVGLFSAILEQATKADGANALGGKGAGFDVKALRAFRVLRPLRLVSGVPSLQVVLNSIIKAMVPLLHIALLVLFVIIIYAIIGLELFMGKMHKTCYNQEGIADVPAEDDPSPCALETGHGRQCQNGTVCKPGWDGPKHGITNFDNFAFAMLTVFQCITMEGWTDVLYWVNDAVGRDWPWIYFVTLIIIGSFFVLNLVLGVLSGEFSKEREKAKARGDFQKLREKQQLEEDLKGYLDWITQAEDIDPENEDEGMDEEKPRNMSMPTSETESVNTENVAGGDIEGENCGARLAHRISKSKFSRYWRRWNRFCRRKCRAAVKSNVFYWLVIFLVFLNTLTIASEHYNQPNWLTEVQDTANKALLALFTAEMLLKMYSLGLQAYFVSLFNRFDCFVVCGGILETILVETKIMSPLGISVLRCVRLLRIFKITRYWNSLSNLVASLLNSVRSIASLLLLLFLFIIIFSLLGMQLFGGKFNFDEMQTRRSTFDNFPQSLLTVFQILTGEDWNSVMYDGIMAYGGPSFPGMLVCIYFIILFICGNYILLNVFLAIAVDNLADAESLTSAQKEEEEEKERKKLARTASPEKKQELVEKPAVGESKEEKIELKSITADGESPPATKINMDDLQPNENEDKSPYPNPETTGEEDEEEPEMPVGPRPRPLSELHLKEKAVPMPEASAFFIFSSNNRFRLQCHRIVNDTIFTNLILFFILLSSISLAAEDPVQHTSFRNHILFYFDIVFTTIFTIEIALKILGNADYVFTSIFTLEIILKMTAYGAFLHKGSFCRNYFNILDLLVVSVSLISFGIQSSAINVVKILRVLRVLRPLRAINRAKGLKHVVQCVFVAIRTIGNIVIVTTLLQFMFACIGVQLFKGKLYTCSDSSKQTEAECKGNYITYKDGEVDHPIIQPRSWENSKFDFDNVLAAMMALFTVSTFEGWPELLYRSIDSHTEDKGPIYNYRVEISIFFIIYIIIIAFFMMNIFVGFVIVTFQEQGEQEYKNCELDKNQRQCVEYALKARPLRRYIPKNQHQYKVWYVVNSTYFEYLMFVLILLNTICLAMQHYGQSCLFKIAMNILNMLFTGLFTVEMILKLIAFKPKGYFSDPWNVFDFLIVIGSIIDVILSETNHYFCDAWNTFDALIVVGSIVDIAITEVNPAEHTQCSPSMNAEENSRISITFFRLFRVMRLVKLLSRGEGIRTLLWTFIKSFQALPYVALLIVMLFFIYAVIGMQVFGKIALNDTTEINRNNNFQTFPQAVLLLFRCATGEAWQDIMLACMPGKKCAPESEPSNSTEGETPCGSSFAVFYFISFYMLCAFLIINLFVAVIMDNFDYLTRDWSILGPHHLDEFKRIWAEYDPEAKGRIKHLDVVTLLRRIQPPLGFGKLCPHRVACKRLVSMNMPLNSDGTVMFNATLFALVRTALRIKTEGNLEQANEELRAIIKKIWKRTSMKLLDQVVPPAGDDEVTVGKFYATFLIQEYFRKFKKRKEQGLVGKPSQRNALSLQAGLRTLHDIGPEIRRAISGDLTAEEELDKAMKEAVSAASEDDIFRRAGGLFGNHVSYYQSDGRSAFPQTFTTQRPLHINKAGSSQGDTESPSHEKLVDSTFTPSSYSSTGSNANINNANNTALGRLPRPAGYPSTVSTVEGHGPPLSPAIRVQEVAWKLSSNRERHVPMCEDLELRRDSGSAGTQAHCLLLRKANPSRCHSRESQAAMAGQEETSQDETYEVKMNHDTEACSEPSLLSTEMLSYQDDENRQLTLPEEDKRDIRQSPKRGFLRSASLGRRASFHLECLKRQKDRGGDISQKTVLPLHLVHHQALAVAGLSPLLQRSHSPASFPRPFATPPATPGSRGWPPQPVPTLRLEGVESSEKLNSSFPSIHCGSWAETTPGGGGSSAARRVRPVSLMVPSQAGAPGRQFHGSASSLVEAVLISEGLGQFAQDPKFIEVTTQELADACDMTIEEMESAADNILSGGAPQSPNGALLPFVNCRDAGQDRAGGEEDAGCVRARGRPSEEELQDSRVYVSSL
T4 sequence (P54289 25-946 partner limits assumed): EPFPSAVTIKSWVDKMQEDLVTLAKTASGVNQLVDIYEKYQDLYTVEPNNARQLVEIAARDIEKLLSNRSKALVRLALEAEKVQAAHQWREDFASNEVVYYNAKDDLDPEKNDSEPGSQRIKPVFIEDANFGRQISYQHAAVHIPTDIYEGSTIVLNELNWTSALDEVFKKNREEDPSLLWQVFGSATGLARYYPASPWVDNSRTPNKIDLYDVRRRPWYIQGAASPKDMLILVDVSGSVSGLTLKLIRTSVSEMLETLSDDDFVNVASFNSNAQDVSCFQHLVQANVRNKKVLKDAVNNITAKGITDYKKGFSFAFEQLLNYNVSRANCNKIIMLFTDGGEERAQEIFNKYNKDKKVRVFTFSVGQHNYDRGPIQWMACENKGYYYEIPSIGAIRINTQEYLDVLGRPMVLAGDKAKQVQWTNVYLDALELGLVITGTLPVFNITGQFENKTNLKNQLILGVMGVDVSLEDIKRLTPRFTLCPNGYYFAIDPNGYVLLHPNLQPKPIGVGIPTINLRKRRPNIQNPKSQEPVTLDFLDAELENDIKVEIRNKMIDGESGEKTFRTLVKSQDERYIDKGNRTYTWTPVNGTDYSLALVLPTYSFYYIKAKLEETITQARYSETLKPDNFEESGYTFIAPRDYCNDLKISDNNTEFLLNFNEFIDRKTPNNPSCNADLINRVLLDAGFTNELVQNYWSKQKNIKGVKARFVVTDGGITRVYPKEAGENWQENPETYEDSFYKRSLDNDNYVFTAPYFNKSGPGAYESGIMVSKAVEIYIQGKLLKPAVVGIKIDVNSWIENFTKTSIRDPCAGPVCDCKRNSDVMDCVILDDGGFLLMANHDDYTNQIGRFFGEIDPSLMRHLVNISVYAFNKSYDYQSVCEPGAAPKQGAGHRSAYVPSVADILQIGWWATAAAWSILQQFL
T4 sequence (P54289 947-1103 partner limits assumed): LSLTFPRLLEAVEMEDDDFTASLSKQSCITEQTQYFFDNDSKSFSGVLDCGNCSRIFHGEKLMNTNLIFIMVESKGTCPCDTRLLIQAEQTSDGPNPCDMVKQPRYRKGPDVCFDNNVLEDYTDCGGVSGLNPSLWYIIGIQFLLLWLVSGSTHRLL
T4 sequence (Q08289 1-606 isoform Q08289-3 partner): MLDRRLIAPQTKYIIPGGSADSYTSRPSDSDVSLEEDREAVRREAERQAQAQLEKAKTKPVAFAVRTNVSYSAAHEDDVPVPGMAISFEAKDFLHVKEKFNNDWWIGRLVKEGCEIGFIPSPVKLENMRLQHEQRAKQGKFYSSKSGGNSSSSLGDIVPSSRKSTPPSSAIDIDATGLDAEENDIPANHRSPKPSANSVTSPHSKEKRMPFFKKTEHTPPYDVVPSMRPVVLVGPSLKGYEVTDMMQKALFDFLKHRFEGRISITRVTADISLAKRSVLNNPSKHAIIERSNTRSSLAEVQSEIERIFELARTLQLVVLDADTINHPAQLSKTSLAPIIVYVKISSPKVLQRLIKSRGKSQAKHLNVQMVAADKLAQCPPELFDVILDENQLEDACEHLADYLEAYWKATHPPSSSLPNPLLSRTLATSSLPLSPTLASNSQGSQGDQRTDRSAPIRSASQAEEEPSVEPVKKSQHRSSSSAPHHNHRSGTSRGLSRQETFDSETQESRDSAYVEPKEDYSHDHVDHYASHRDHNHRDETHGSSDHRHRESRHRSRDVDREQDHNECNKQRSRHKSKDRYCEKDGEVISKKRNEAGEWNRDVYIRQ
T5 sequence (Q13936 whole entry N1179W): as the sequence (Q13936 whole entry) above, with N1179W counted along it
T5 sequence (P54289 25-946 partner limits assumed): as the sequence (P54289 25-946 partner limits assumed) above
T5 sequence (P54289 947-1103 partner limits assumed): as the sequence (P54289 947-1103 partner limits assumed) above
T5 sequence (Q08289 1-606 isoform Q08289-3 partner): as the sequence (Q08289 1-606 isoform Q08289-3 partner) above

Structure (SMILES): CC1=C(C(=O)OC(C)C)[C@@H](c2cccc3nonc23)C([N+](=O)[O-])=C(C)N1 [R202-791]
- effect of substitutions at T1056 and Q1060 on sensitivity of CaV1.2 to the drug [1]: almost abolished the sensitivity

Structure (SMILES): COC(=O)C1=C(C)NC(C)=C(C(=O)OC2CCCN(Cc3ccccc3)C2)C1c1cccc([N+](=O)[O-])c1 (stereo not drawn) [benidipine]
- remaining activity at 0.01 µM ([2]; HEK-293T, benidipine 0.01 μM, Q1060M, single experiments, Supplementary Fig. 7c source data, read-out: normalized current (I/Imax)): 97%
- remaining activity at 0.1 µM ([2]; HEK-293T, benidipine 0.1 μM, Q1060M, single experiments, Supplementary Fig. 7c source data, read-out: normalized current (I/Imax)): 88.7%
- remaining activity at 1 µM ([2]; HEK-293T, benidipine 1 μM, Q1060M, single experiments, Supplementary Fig. 7c source data, read-out: normalized current (I/Imax)): 73.2%
- remaining activity at 10 µM ([2]; HEK-293T, benidipine 10 μM, Q1060M, single experiments, Supplementary Fig. 7c source data, read-out: normalized current (I/Imax)): 46.7%
- remaining activity at 100 µM ([2]; HEK-293T, benidipine 100 μM, Q1060M, single experiments, Supplementary Fig. 7c source data, read-out: normalized current (I/Imax)): 20.1%
- IC50 ([2]; IC50 of benidipine on CaV1.2^Q1060M, held at -100 mV, depolarized at +10 mV every 1 min, n = 4): 7.5 µM
- HillSlope (best-fit value) ([2]; benidipine, Q1060M): -0.4107
- logIC50 (best-fit value) ([2]; benidipine, Q1060M, X values in μM): 0.8728
- IC50 ([2]; benidipine, Q1060M, variable slope fit, X values in μM per sheet Supplementary Figure 7c, read-out: IC50 (best-fit value)): 7.46 µM
- selectivity class for L-type and T-type channels [3]: L/T-type selective
- selectivity class for L-type and T-type channels ([3]; listed as Benidipine): non-selective
- remaining activity at 0.01 µM ([4]; HEK-293T, benidipine 0.01 μM, T1056Y, single experiments, Supplementary Fig. 7c source data, read-out: normalized current (I/Imax)): 99.8%
- remaining activity at 0.1 µM ([4]; HEK-293T, benidipine 0.1 μM, T1056Y, single experiments, Supplementary Fig. 7c source data, read-out: normalized current (I/Imax)): 91.4%
- remaining activity at 1 µM ([4]; HEK-293T, benidipine 1 μM, T1056Y, single experiments, Supplementary Fig. 7c source data, read-out: normalized current (I/Imax)): 85.3%
- remaining activity at 10 µM ([4]; HEK-293T, benidipine 10 μM, T1056Y, single experiments, Supplementary Fig. 7c source data, read-out: normalized current (I/Imax)): 67.2%
- HillSlope (best-fit value) ([4]; benidipine, T1056Y): -0.3204
- logIC50 (best-fit value) ([4]; benidipine, T1056Y, X values in μM): 2.427
- IC50 ([4]; held at -100 mV, depolarized at +10 mV every 1 min, n = 4): > 100 µM
- remaining activity at 0.01 µM ([5]; HEK-293T, benidipine 0.01 μM, Q1060F, single experiments, Supplementary Fig. 7c source data, read-out: normalized current (I/Imax)): 93.9%
- remaining activity at 0.1 µM ([5]; HEK-293T, benidipine 0.1 μM, Q1060F, single experiments, Supplementary Fig. 7c source data, read-out: normalized current (I/Imax)): 88.2%
- remaining activity at 1 µM ([5]; HEK-293T, benidipine 1 μM, Q1060F, single experiments, Supplementary Fig. 7c source data, read-out: normalized current (I/Imax)): 81.9%
- IC50 ([5]; IC50 of benidipine on CaV1.2^Q1060F, held at -100 mV, depolarized at +10 mV every 1 min, n = 4): 11.7 µM
- HillSlope (best-fit value) ([5]; benidipine, Q1060F): -0.3921
- logIC50 (best-fit value) ([5]; benidipine, Q1060F, X values in μM): 1.07
- IC50 ([5]; benidipine, Q1060F, variable slope fit, X values in μM per sheet Supplementary Figure 7c, read-out: IC50 (best-fit value)): 11.7 µM
- IC50 [6]: 11 µM and ~11 µM
- IC50 [7]: ~35 µM
- remaining activity at 0.01 µM ([8]; HEK-293T, benidipine 0.01 μM, WT, single experiments, Supplementary Fig. 7c source data, read-out: normalized current (I/Imax)): 91%
- remaining activity at 1 µM ([8]; HEK-293T, benidipine 1 μM, WT, single experiments, Supplementary Fig. 7c source data, read-out: normalized current (I/Imax)): 27.4%
- CaV1.2 current reduction ([8]; benidipine 100 μM): 90%
- HillSlope (best-fit value) ([8]; benidipine, WT): -0.5499
- logIC50 (best-fit value) ([8]; benidipine, WT): -0.6638

Structure (SMILES): COCCOC(=O)C1=C(C)NC(C)=C(C(=O)OC/C=C/c2ccccc2)C1c1cccc([N+](=O)[O-])c1 (stereo not drawn) [cilnidipine, Cilnidipine]
- selectivity class for L-type and T-type channels [3]: L-type selective
- inhibition of T-type channels ([6]; result in words): cannot inhibit T-type channels

Structure (SMILES): CCOC(=O)C1=C(C)NC(C)=C(C(=O)OC)C1c1cccc(Cl)c1Cl (stereo not drawn) [felodipine, Felodipine]
- selectivity class for L-type and T-type channels [3]: L-type selective

Structure (SMILES): COC(=O)C1=C(C)NC(C)=C(C(=O)OCCN2CCN(C(c3ccccc3)c3ccccc3)CC2)C1c1cccc([N+](=O)[O-])c1 (stereo not drawn) [manidipine, Manidipine]
- selectivity class for L-type and T-type channels [3]: L/T-type selective
- selectivity class for L-type and T-type channels ([3]; listed as Manidipine): non-selective

Structure (SMILES): COC(=O)C1=C(C)NC(C)=C(C(=O)OC)C1c1ccccc1[N+](=O)[O-] [nifedipine]
- selectivity class for L-type and T-type channels [3]: L-type selective
- sensitivity of T-type CaV channels ([6]; result in words): no sensitivity
- sensitivity of N-type CaV channels ([7]; result in words): no sensitivity

Structure (SMILES): COCCOC(=O)C1=C(C)NC(C)=C(C(=O)OC(C)C)C1c1cccc([N+](=O)[O-])c1 (stereo not drawn) [nimodipine, Nimodipine]
- selectivity class for L-type and T-type channels [3]: non-selective
- preference among T-type channels ([6]; CaV3.1, CaV3.2, CaV3.3): preference for inhibiting CaV3.2 and CaV3.3 over CaV3.1

Structure (SMILES): CCOC(=O)C1=C(C)NC(C)=C(C(=O)OC)C1c1cccc([N+](=O)[O-])c1 (stereo not drawn) [nitrendipine, Nitrendipine]
- selectivity class for L-type and T-type channels [3]: L-type selective

Structure (SMILES): COc1ccc2cc1Oc1ccc(cc1)C[C@H]1c3cc(c(OC)cc3CCN1C)Oc1c(OC)c(OC)cc3c1[C@H](C2)N(C)CC3 [tetrandrine]
- remaining activity at 0.001 µM ([9]; HEK-293T, tetrandrine 0.001 μM, N1179W, single experiments, Fig. 3f source data, read-out: normalized current (I/Imax)): 86.3%
- IC50 ([9]; held at -100 mV, depolarized at +10 mV every 20 s, n = 10): 0.0418 µM
- HillSlope (best-fit value) ([9]; tetrandrine, N1179W): -0.3696
- logIC50 (best-fit value) ([9]; tetrandrine, N1179W, X values in μM): -1.379
- remaining activity at 0.001 µM ([10]; HEK-293T, tetrandrine 0.001 μM, N741W, single experiments, Fig. 3f source data, read-out: normalized current (I/Imax)): 90.1%
- remaining activity at 0.1 µM ([10]; HEK-293T, tetrandrine 0.1 μM, N741W, single experiments, Fig. 3f source data, read-out: normalized current (I/Imax)): 49.4%
- remaining activity at 10 µM ([10]; HEK-293T, tetrandrine 10 μM, N741W, single experiments, Fig. 3f source data, read-out: normalized current (I/Imax)): 22.8%
- IC50 ([10]; IC50 of tetrandrine on CaV1.2^N741W, held at -100 mV, depolarized at +10 mV every 20 s, n = 10): 0.0713 µM
- HillSlope (best-fit value) ([10]; tetrandrine, N741W): -0.3074
- logIC50 (best-fit value) ([10]; tetrandrine, N741W, X values in μM): -1.147
- IC50 ([10]; tetrandrine, N741W, variable slope fit, bottom 0, top 1, X values in μM per sheet Figure 3f, read-out: IC50 (best-fit value)): 0.0712 µM
- remaining activity at 0.001 µM ([8]; HEK-293T, tetrandrine 0.001 μM, WT, single experiments, Fig. 3f source data, read-out: normalized current (I/Imax)): 84.9%
- IC50 ([8]; IC50 of tetrandrine on CaV1.2^WT, held at -100 mV, depolarized at +10 mV every 20 s, n = 10): ~0.0142 µM and 0.0142 µM
- CaV1.2 current reduction ([8]; tetrandrine 10 μM): 90%
- HillSlope (best-fit value) ([8]; tetrandrine, WT): -0.4914
- logIC50 (best-fit value) ([8]; tetrandrine, WT): -1.849
